Molecules are shown by their SMILES. A value given as a limit tells only on which side of the number the result lay.

The species entered for data set [1] is Homo sapiens. Put plainly: in vitro inhibition of human gel-filtered platelets. The format is functional.
In data set [2] the test system is Canis familiaris. Put plainly: Effect on inhibition of the extent of ex vivo ADP-induced aggregation in canine platelet rich plasma at dose of 0.5 mg/kg po. The following applies: Canis lupus familiaris. The format is functional.
The species entered for data set [3] is Homo sapiens. Put plainly: in vitro inhibition of human gel-filtered platelets using ADP agonist. The format is functional.
In data set [4] the test system is Canis familiaris. Put plainly: Effect on inhibition of the extent of ex vivo ADP-induced aggregation in canine platelet rich plasma at dose of 0.1 mg/kg po. The format is functional. The following applies: Canis lupus familiaris.
Data set [5] concerns Canis familiaris. Nature of the data set: Effect on inhibition of the extent of ex vivo ADP-induced aggregation in canine platelet rich plasma at dose of 0.3 mg/kg po. The format is functional. As to conditions: Canis lupus familiaris.
The test system of data set [6] is Canis familiaris. Put plainly: Tmax was measured by calculating maximum time taken for ADP -induced platelet aggregation in canine platelet rich plasma at dose of 0.5 mg/kg po; Tmax hours. As to conditions: dog, in vivo. The format is ADME, organism-based, Canis lupus familiaris. More on the design: dose 0.5 mg/kg.
Data set [7] concerns Canis familiaris. Put plainly: Tmax was measured by calculating maximum time taken for ADP -induced plat let aggregation n canine platelet rich plasma at dose of 0.5 mg/kg po; Tmax hours. As to conditions: dog, in vivo. The format is ADME, organism-based, Canis lupus familiaris. Details: dose 0.5 mg/kg.
Data set [8] is filed under the species Homo sapiens. Put plainly: In vitro inhibition of human gel-filtered platelets. The format is functional.

For the compound `C#C[C@H](CC(=O)O)NC(=O)CN1CCc2cc(Cl)c(N3CCNCC3)cc2C1=O`, the IC50 – broadly, the concentration needed to halve the response being measured – in the data set listed under Homo sapiens [1] stood at 19 nM. 0.5 mg/kg produced 80% inhibition in vivo with Canis familiaris [2]. With `C#C[C@H](CC(=O)O)NC(=O)CN1CCc2ccc(-c3ccncc3)cc2C1=O`, the IC50 in the data set listed under Homo sapiens [3] amounted to 160 nM. Compound `N[C@@H](CNC(=O)CN1CCc2ccc(N3CCNCC3)cc2C1=O)C(=O)O` showed an IC50 in the data set listed under Homo sapiens [1] of 630 nM.

As to `C#C[C@H](CC(=O)OCC)NC(=O)Cn1c(=O)[nH]c2ccc(N3CCNCC3)cc2c1=O`, testing at 0.1 mg/kg with Canis familiaris [4] gave an inhibition in vivo of 0%. Consider `C#C[C@H](CC(=O)O)NC(=O)CN1CCc2ccc(C3CCNCC3)cc2C1=O`, for which the inhibition in vivo (in general, the relative decrease from the control value, in per cent) at 0.3 mg/kg in the data set with Canis familiaris [5] came out at 100%. In the data set filed under Homo sapiens [1], this compound yielded an IC50 of 6 nM. Regarding `CCOC(=O)C[C@H](NC(=O)CN1CCc2ccc(N3CCNCC3)cc2C1=O)c1cccnc1`, the inhibition in vivo at 0.5 mg/kg in the data set with Canis familiaris [2] amounted to 75%. In addition, the T max in the data set on Canis familiaris [6] was 2.5. For the compound `C#C[C@H](CC(=O)O)NC(=O)Cn1cnc2ccc(N3CCNCC3)cc2c1=O`, the IC50 in the data set listed under Homo sapiens [3] was 330 nM. In turn, `C#C[C@H](CC(=O)O)NC(=O)CN1CCc2cc(F)c(N3CCNCC3)cc2C1=O` yielded an IC50 in the data set filed under Homo sapiens [1] of 15 nM. The inhibition in vivo at 0.5 mg/kg with Canis familiaris [2] was found to be 95%. Regarding `C#C[C@H](CC(=O)O)NC(=O)Cn1ccc2ccc(N3CCNCC3)cc2c1=O`, in the data set listed under Homo sapiens [3], the IC50 amounted to 81 nM. As for `C#C[C@H](CC(=O)O)NC(=O)CN1CCc2ccc(N3CCNCC3)c(Cl)c2C1=O`, the IC50 in the data set listed under Homo sapiens [1] was found to be 35 nM. Still for that read-out and setting: under `C#C[C@H](CC(=O)O)NC(=O)CN1CCc2ccc(N3CCNCC3)cc2C1` stands 320 nM; under `O=C(O)C[C@H](NC(=O)CN1CCc2ccc(N3CCNCC3)cc2C1=O)c1ccc[n+]([O-])c1`, 18 nM. In the case of `O=C(O)C[C@@H](CCc1ccccc1)NC(=O)CN1CCc2ccc(N3CCNCC3)cc2C1=O`, half-maximal inhibition in the data set filed under Homo sapiens [1] (IC50) was put at 16 nM. Also, the inhibition in vivo at 0.5 mg/kg in the data set with Canis familiaris [2] was determined as 20%.

For `C[C@H](CC(=O)O)NC(=O)CN1CCc2ccc(N3CCNCC3)cc2C1=O`, in the data set filed under Homo sapiens [1], it took 30 nM to reach half-maximal inhibition (IC50). Further, the inhibition in vivo at 0.5 mg/kg with Canis familiaris [2] came to 100%. For `O=C(O)C[C@H](NC(=O)CN1CCc2ccc(N3CCNCC3)cc2C1=O)c1cccnc1`, the T max in the data set on Canis familiaris [7] is 1. This compound had an IC50 in the data set filed under Homo sapiens [3] of 13 nM. Moreover, the inhibition in vivo at 0.5 mg/kg in the data set on Canis familiaris [2] came out at 100%. In the data set filed under Homo sapiens [3], `C#C[C@H](CC(=O)O)NC(=O)Cn1c(=O)[nH]c2ccc(N3CCNCC3)cc2c1=O` returned an IC50 of 27 nM. In the data set with Canis familiaris [2], this compound displayed an inhibition in vivo at 0.5 mg/kg of 0%. With `C#C[C@H](CC(=O)OCC)NC(=O)CN1CCc2ccc(C3CCNCC3)cc2C1=O`, the inhibition in vivo at 0.3 mg/kg with Canis familiaris [5] was 40%. With `C#C[C@H](CC(=O)OCC)NC(=O)CN1CCc2ccc(N3CCNCC3)c(Cl)c2C1=O`, in the data set with Canis familiaris [2], 0.5 mg/kg produced 100% inhibition in vivo. `O=C(O)CCNC(=O)CN1CCc2ccc(N3CCNCC3)cc2C1=O` came in with a half-maximal inhibitory concentration (IC50) in the data set filed under Homo sapiens [8] of 140 nM.

In turn, `C#C[C@H](CC(=O)OCC)NC(=O)CN1CCc2cc(F)c(N3CCNCC3)cc2C1=O` registered an inhibition in vivo at 0.3 mg/kg in the data set with Canis familiaris [5] of 100%. `O=C(O)C[C@H](NC(=O)CN1CCc2ccc(N3CCOCC3)cc2C1=O)c1cccnc1` showed an IC50 in the data set listed under Homo sapiens [3] greater than 300000 nM. `C#C[C@H](CC(=O)O)NC(=O)CN1CCc2ccc(N3CCNCC3)cc2C1=O` came in with an inhibition in vivo at 0.3 mg/kg in the data set on Canis familiaris [5] of 80%. Moreover, in the data set filed under Homo sapiens [1], the midpoint of inhibition, the IC50, lay at 12 nM.

Values taken from ChEMBL document CHEMBL1129398, “Non-peptide glycoprotein IIb/IIIa antagonists. 11. Design and in vivo evaluation of 3,4-dihydro-1 (1H)-isoquinolinone-based antagonists and ethyl ester prodrugs” (J Med Chem, 1996).
